Data published in patent EP4537815A1, “COMPOSITION COMPRISING A LASSO PEPTIDE […] A PHARMACEUTICALLY ACCEPTABLE NANOEMULSION” (priority 2023, dated 2025).
“Also recorded” adds a separate entry of the source. Where a SMILES comes first, the peptide text is derived from it. Bridges are numbered along the chain shown (N, C = ends).

Legend:
[1] = test system: E. faecalis V583 (exhibiting VanB resistance); assay: Vancomycin MIC by microdilution (CLSI) in GM17, VanB-resistant strain, with or without lasso peptide; assay type: cell-based; details: VanB-type
Procedure: (§1) An evaluation of bacterial growth was performed in vitro to assess the bacterial response to either vancomycin or bacitracin, in the absence or in the presence of either sviceucin or siamycin I.
(§2) Each strain was cultured at 37 °C in M17 medium (Terzaghi and Sandine 1975) supplemented with 0.5 % (weight/volume) glucose (GM17 medium). Overnight cultures are grown in GM17 broth and are used to inoculate the cultures for MIC measurement.
(§3) Lyophilized lasso peptides were solubilized first at 800 µM in a 1:1 solution of sterilized pure water and methanol. This stock is used for subsequent dilutions in GM17.
(§4) The measurement of the minimal inhibitory concentration (MIC) of antibiotic (either vancomycin or bacitracin) was determined by the microdilution method in accordance with the guidelines of the Clinical and Laboratory Standards Institute (CLSI 2012), with GM17 medium used as a growth medium. Subsequent 2-fold serial dilutions of the antibiotic (either vancomycin or bacitracin) were performed to obtain concentrations ranging from 0.5 to 512 µg/mL.
(§5) The lasso peptides (either siamycin I or sviceucin) were added for the relevant conditions at a final concentration of 10 µM, 5 µM or 2.5 µM. Bacterial strains from overnight cultures were added with an inoculum of 5 x 10^5 CFU/mL. The MIC corresponds to the lowest concentration in the wells where no growth is observed. […]

[2] = test system: bacitracin resistant Gram-positive bacteria belonging to the Enterococcus genus; assay: Bacitracin MIC by microdilution (CLSI) in GM17, with or without lasso peptide; assay type: cell-based
Procedure: as §1, §2, §3, §4, §5

[3] = test system: E. faecium Bi21 (exhibiting VanA resistance), E. faecium Bi22 (exhibiting VanA resistance); assay: Vancomycin MIC by microdilution (CLSI) in GM17, VanA-resistant strains, with or without lasso peptide; assay type: cell-based
Procedure: as §1, §2, §3, §4, §5

[4] = test system: E. faecalis V583, E. faecium Bi21, E. faecium Bi22; assay: In vitro bacterial growth in the presence of the lasso peptide alone; assay type: cell-based, Enterococcus
Procedure: as §1, §2, §3
The lasso peptides (either siamycin I or sviceucin) were added for the relevant conditions at a final concentration of 10 µM, 5 µM or 2.5 µM. Bacterial strains from overnight cultures were added with an inoculum of 5 x 10^5 CFU/mL. The MIC corresponds to the lowest concentration in the wells where no growth is observed.

Structure (SMILES)	effect on vancomycin resistance ([1]; lasso peptide at 2.5 µM combined with vancomycin)	effect on bacitracin resistance ([2]; lasso peptide at 2.5 µM combined with bacitracin)	Vancomycin MIC (VanA-resistant strains) ([3]; in the presence of the lasso peptide at 5 µM)	effect on vancomycin resistance ([3]; lasso peptide at 2.5 µM combined with vancomycin, VanA-type)	Growth in the presence of the lasso peptide alone ([4]; lasso peptide at 2.5 µM)	Growth in the presence of the lasso peptide alone ([4]; lasso peptide at 5 µM)	effect on vancomycin resistance ([1]; lasso peptide at 10 µM combined with vancomycin)	effect on bacitracin resistance ([2]; lasso peptide at 10 µM combined with bacitracin)
CC[C@H](C)[C@@H]1NC(=O)[C@H](C)NC(=O)[C@H](Cc2ccc(O)cc2)NC(=O)CNC(=O)[C@@H]2CSSC[C@@H]3NC(=O)C[C@H](NC(=O)[C@H](CC(N)=O)NC(=O)[C@H](CSSC[C@@H](C(=O)N[C@@H](Cc4ccccc4)C(=O)N[C@@H](Cc4c[nH]c5ccccc45)C(=O)O)NC(=O)[C@H](C(C)C)NC1=O)NC(=O)[C@H](CO)NC(=O)CNC(=O)[C@H](C(C)C)NC(=O)CNC(=O)[C@H](CC(C)C)NC3=O)C(=O)N[C@@H](Cc1ccccc1)C(=O)N[C@@H](C)C(=O)NCC(=O)N2 [Siamycin I, siamycin I] (CLGVGSCNDFAGCGYAIVCFW-OH; disulfide 1-13, 7-19 (inferred); lactam N-9 (inferred); C-terminus assumed)	reverses vancomycin resistance	reverses bacitracin resistance	0 µg/mL	reverses vancomycin resistance	Growth slowed down but not inhibited	exhibits a growth inhibition activity; also recorded: Growth inhibited		
CC[C@H](C)[C@@H]1NC(=O)[C@H](Cc2c[nH]c3ccccc23)NC(=O)[C@H](C)NC(=O)[C@H]([C@@H](C)O)NC(=O)CNC(=O)[C@@H]2CSSC[C@@H]3NC(=O)C[C@H](NC(=O)[C@H]([C@@H](C)O)NC(=O)[C@H](CSSC[C@@H](C(=O)N[C@H](C(=O)O)C(C)C)NC1=O)NC(=O)[C@H](CC(=O)O)NC(=O)CNC(=O)CNC(=O)[C@H](Cc1c[nH]c4ccccc14)NC(=O)[C@H](C(C)C)NC3=O)C(=O)N[C@@H](Cc1ccccc1)C(=O)N[C@@H](CC(C)C)C(=O)NCC(=O)N2 [Sviceucin, sviceucin] (CVWGGDCTDFLGCGTAWICV-OH; disulfide 1-13, 7-19 (inferred); lactam N-9 (inferred); C-terminus assumed)							reverses vancomycin resistance	reverses bacitracin resistance
